ChEMBL document CHEMBL1201862, “PubChem BioAssay data set” (2004)
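Growth conditions: 96-well plates. Treatment: test compound, 48 hours, 5 concentrations. Analysis: linear interpolation between bracketing concentrations; unreached endpoints set to highest concentration. GI50 is the concentration that inhibits growth by half.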 The source made the active and inactive calls. Cut-off read from the data, not from the text of the source: active = GI50 up to about 1.1 µM and inactive = higher. Non-standard residues stand in square brackets, D forms with d. Residues, ends and D or L forms follow the SMILES beside them. *: point of attachment. X30 = COC1=CC(=O)N(C(=O)[C@@H](O*)C(C)C)[C@H]1Cc1ccccc1; NMeL = CN[C@@H](CC(C)C)C(=O)O; Cbz = O=C(OCc1ccccc1)*

Assays:
Test in all cases: NCI-60 cell line screen, 48 h
BT-549 = system: BT-549
HCT-116 = system: HCT-116
HOP-92 = system: HOP-92
Hs-578T = system: Hs-578T
M14 = system: M14
MCF7 = system: MCF7
MDA-MB-435 = system: MDA-MB-435
NCI-H226 = system: NCI-H226
NCI-H23 = system: NCI-H23
NCI-H522 = system: NCI-H522
OVCAR-3 = system: OVCAR-3
OVCAR-4 = system: OVCAR-4
OVCAR-5 = system: OVCAR-5
SF-539 = system: SF-539
SK-MEL-2 = system: SK-MEL-2
SNB-19 = system: SNB-19
SW-620 = system: SW-620
T47D = system: T47D
U-251 = system: U-251
UACC-62 = system: UACC-62

Row | Compound | GI50 (BT-549) | GI50 (HCT-116) | GI50 (HOP-92) | GI50 (Hs-578T) | GI50 (M14) | GI50 (MCF7) | GI50 (MDA-MB-435) | GI50 (NCI-H226) | GI50 (NCI-H23) | GI50 (NCI-H522) | GI50 (OVCAR-3) | GI50 (OVCAR-4) | GI50 (OVCAR-5) | GI50 (SF-539) | GI50 (SK-MEL-2) | GI50 (SNB-19) | GI50 (SW-620) | GI50 (T47D) | GI50 (U-251) | GI50 (UACC-62)
1 | C[C@H](NC(=O)C(Cc1ccccc1)(Cc1ccc(O)cn1)NC(=O)c1ccccc1)c1ccccc1 (stereo not given in full) | 18.1 µM (inactive) | 15.3 µM (inactive) | 21.3 µM (inactive) | 16.7 µM (inactive) | 15.3 µM (inactive) | 24.2 µM (inactive) | 16.5 µM (inactive) | 19.7 µM (inactive) | 22 µM (inactive) | 15.5 µM (inactive) | 14.7 µM (inactive) | 15.1 µM (inactive) | 21.9 µM (inactive) | 19.2 µM (inactive) | 14.2 µM (inactive) | 18.8 µM (inactive) | 22.5 µM (inactive) | 18.5 µM (inactive) | 15.3 µM (inactive) | 13.2 µM (inactive)
2 | CC(=O)NNc1nc(C)c(C(/C=C/c2ccc3c(c2)OCO3)=N/Nc2ccccc2)s1 | > 100 µM (inactive) | > 100 µM (inactive) | > 100 µM (inactive) | > 100 µM (inactive) | > 100 µM (inactive) | > 100 µM (inactive) | > 100 µM (inactive) | > 100 µM (inactive) | > 100 µM (inactive) | > 100 µM (inactive) | > 100 µM (inactive) | > 100 µM (inactive) | > 100 µM (inactive) | > 100 µM (inactive) | > 100 µM (inactive) | > 100 µM (inactive) | > 100 µM (inactive) | > 100 µM (inactive) | > 100 µM (inactive) | > 100 µM (inactive)
3 | COC(=O)/C=C/c1ccccc1N=[S@](C)(=O)c1ccc(C)cc1 | 33 µM (inactive) | 15.3 µM (inactive) | 35 µM (inactive) | 18.7 µM (inactive) | 12.6 µM (inactive) | 13.4 µM (inactive) | 3.54 µM (inactive) | 36.1 µM (inactive) | 28.1 µM (inactive) | 2.86 µM (inactive) | 14.6 µM (inactive) | 26.1 µM (inactive) | 36.1 µM (inactive) | 21.8 µM (inactive) | 21.8 µM (inactive) | 19.1 µM (inactive) | 8.89 µM (inactive) | 31.8 µM (inactive) | 17.7 µM (inactive) | 8.24 µM (inactive)
4 | CC(=O)NC1=C(C)C(=O)c2c(nc3n2CC[C@H]3OC(C)=O)C1=O | 1.59 µM (inactive) | 1.3 µM (inactive) | 0.416 µM (active) | 3.21 µM (inactive) | 2.06 µM (inactive) | 1.49 µM (inactive) | 0.774 µM (active) | 9.77 µM (inactive) | 2.61 µM (inactive) | 1.54 µM (inactive) | 0.0982 µM (active) | 0.891 µM (active) | 2.96 µM (inactive) | 2.38 µM (inactive) | 1.41 µM (inactive) | 5.5 µM (inactive) | 1.53 µM (inactive) | 0.238 µM (active) | 1.59 µM (inactive) | 1.69 µM (inactive)
5 | CCN1CCC(O)(/C=C/c2ccc(C(C)C)cc2)C(C(=O)/C=C/c2ccc(C(C)C)cc2)C1 (stereo not given) | 4.15 µM (inactive) | 1.75 µM (inactive) | 1.85 µM (inactive) | 2.31 µM (inactive) | 3.1 µM (inactive) | 2.46 µM (inactive) | 2.96 µM (inactive) | 2.82 µM (inactive) | 2.38 µM (inactive) | 2.1 µM (inactive) | 2.84 µM (inactive) | 3.04 µM (inactive) | 4.34 µM (inactive) | 2.29 µM (inactive) | 3.08 µM (inactive) | 3.8 µM (inactive) | 2.67 µM (inactive) | 2.35 µM (inactive) | 2.61 µM (inactive) | 4.15 µM (inactive)
6 | COC1=CC(=O)N(C(=O)[C@@H](OC(=O)[C@@H]2CCCN2C(=O)[C@@H]2CCCN2C(=O)[C@H](CC(C)C)N(C)C(=O)[C@@H](NC(=O)[C@@H](NC(=O)OCc2ccccc2)C(C)C)C(C)C)C(C)C)[C@H]1Cc1ccccc1 (Cbz-VV[NMeL]PP-X30) | 23.1 µM (inactive) | 44.6 µM (inactive) | 20.5 µM (inactive) | > 100 µM (inactive) | 70.1 µM (inactive) | 56 µM (inactive) | > 100 µM (inactive) | > 100 µM (inactive) | > 100 µM (inactive) | > 100 µM (inactive) | 47.1 µM (inactive) | > 100 µM (inactive) | > 100 µM (inactive) | 15 µM (inactive) | 9.42 µM (inactive) | 28.6 µM (inactive) | > 100 µM (inactive) | 68.2 µM (inactive) | 24.9 µM (inactive) | 48.1 µM (inactive)
7 | CN(CC(N)=O)C(=O)N(CCCl)N=O [SARCNU] | > 100 µM (inactive) | > 100 µM (inactive) | > 77.6 µM (inactive) | > 100 µM (inactive) | > 100 µM (inactive) | > 100 µM (inactive) | > 100 µM (inactive) | 67.9 µM (inactive) | > 100 µM (inactive) | > 100 µM (inactive) | > 100 µM (inactive) | > 100 µM (inactive) | > 100 µM (inactive) | 38.3 µM (inactive) | > 100 µM (inactive) | > 83.9 µM (inactive) | > 100 µM (inactive) | > 100 µM (inactive) | > 100 µM (inactive) | > 56.4 µM (inactive)
8 | CC(C)(C)c1cc(C(=O)/C=C/C=C/c2ccccc2)cc(C(C)(C)C)c1O | 18.5 µM (inactive) | 18.2 µM (inactive) | 42.2 µM (inactive) | 25.7 µM (inactive) | 17.2 µM (inactive) | 8.3 µM (inactive) | 11.2 µM (inactive) | 24.3 µM (inactive) | 27.2 µM (inactive) | 10.3 µM (inactive) | 27.4 µM (inactive) | > 51.5 µM (inactive) | 36.7 µM (inactive) | 14.5 µM (inactive) | 11.7 µM (inactive) | 22.3 µM (inactive) | 11.5 µM (inactive) | 28.9 µM (inactive) | 14.2 µM (inactive) | 18.1 µM (inactive)
9 | NCCCCN(CCCN)C(=O)c1ccccc1 | > 100 µM (inactive) | > 100 µM (inactive) | > 100 µM (inactive) | > 100 µM (inactive) | > 100 µM (inactive) | > 100 µM (inactive) | > 100 µM (inactive) | > 100 µM (inactive) | > 100 µM (inactive) | > 100 µM (inactive) | > 100 µM (inactive) | > 100 µM (inactive) | > 100 µM (inactive) | > 100 µM (inactive) | > 100 µM (inactive) | > 100 µM (inactive) | > 100 µM (inactive) | > 100 µM (inactive) | > 100 µM (inactive) | > 100 µM (inactive)
10 | Cc1sc2ccccc2[n+]1CCC(=O)O | > 100 µM (inactive) | > 100 µM (inactive) | > 100 µM (inactive) | > 100 µM (inactive) | > 100 µM (inactive) | > 100 µM (inactive) | > 100 µM (inactive) | > 100 µM (inactive) | > 100 µM (inactive) | > 100 µM (inactive) | > 100 µM (inactive) | > 100 µM (inactive) | > 100 µM (inactive) | > 100 µM (inactive) | > 100 µM (inactive) | > 100 µM (inactive) | > 100 µM (inactive) | > 100 µM (inactive) | > 100 µM (inactive) | > 100 µM (inactive)
